Measurements reported in patent US12692236B2, “Small molecule modulators of sigma-1 and sigma-2 receptors and uses thereof” (Northwestern University, priority 2018, dated 2026).

Legend:
[1] = target: sigma-1 receptor (Homo sapiens, UniProt Q99720); experiment: sigma-1 receptor binding affinity (Ki); conditions: for Ki: read-out: Ki (nM) Sigma-1
[2] = target: sigma-2 receptor (Homo sapiens, UniProt Q5BJF2); experiment: sigma-2 receptor binding affinity (Ki); conditions: for Ki: read-out: Ki (nM) Sigma-2
Sequence of sigma-2 receptor (Q5BJF2 whole entry, species assumed): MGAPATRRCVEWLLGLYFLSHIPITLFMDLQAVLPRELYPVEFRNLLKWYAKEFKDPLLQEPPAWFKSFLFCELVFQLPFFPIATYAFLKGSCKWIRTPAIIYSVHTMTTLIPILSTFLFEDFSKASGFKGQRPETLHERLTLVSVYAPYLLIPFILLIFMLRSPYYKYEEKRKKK

Sequence of sigma-1 receptor (Q99720 whole entry, species assumed): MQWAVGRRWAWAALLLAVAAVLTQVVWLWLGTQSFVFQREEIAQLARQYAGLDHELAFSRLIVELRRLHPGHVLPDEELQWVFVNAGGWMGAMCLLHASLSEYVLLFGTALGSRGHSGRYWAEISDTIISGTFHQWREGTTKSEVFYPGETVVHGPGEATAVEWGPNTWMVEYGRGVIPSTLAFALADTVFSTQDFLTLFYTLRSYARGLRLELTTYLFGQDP

Row | Compound | Ki [1] [nM] | Ki [2] [nM] | further results
1 | CCCn1nc(C(=O)N2CCCCC2)c2c1CCC(NCCc1ccncc1)C2 (stereo not drawn) [compound 200390, Piperidin-1-yl(1-propyl-5-((2-(pyridin-4-yl)ethyl)amino)-4,5,6,7-tetrahydro-1H-indazol-3-yl)methanone] |  |  | activity against sigma-1 (in words) [1]: eliminated the activity; activity against sigma-2 (in words) [2]: eliminated the activity
2 | O=C(c1nn(-c2ccccc2)c2c1CC(NCCc1ccc(F)cc1)CC2)N1CCCCC1 (stereo not drawn) [compound 201667, (5-((4-Fluorophenethyl)amino)-1-phenyl-4,5,6,7-tetrahydro-1H-indazol-3-yl)(piperidin-1-yl)methanone] | 131 | 91 | selectivity sigma-1 versus sigma-2 (in words) [1]: equipotent inhibitor against both sigma receptors
3 | CCCn1nc(C(=O)N(C)C)c2c1CCC(NS(=O)(=O)c1ccc(F)cc1)C2 (stereo not drawn) [compound 200629, 5-((4-fluorophenyl)sulfonamido)-N,N-dimethyl-1-propyl-4,5,6,7-tetrahydro-1H-indazole-3-carboxamide] | > 10000 | > 10000 | activity against sigma-1 (in words) [1]: did not restore the activity; activity against sigma-2 (in words) [2]: did not restore the activity
4 | CCCn1nc(C(=O)N2CCCCC2)c2c1CCC(Nc1ccc(Oc3ccccc3)cc1)C2 (stereo not drawn) [compound 200702] | > 10000 | 310 | 
5 | O=C(c1c2c(nn1-c1ccccc1)CCC(NCCc1ccncc1)C2)N1CCCCC1 (stereo not drawn) [compound 201670, (2-Phenyl-5-((2-(pyridin-4-yl)ethyl)amino)-4,5,6,7-tetrahydro-2H-indazol-3-yl)(piperidin-1-yl)methanone] | 226 | 296 | 
6 | CCCn1nc(C(=O)N2CCCCC2)c2c1CCC(NCCc1ccc(O)cc1)C2 (stereo not drawn) [compound 200643, (5-((4-Hydroxyphenethyl)amino)-1-propyl-4,5,6,7-tetrahydro-1H-indazol-3-yl)(piperidin-1-yl)methanone] | > 10000 | 273 | selectivity of sigma-2 ligands against sigma-1 (in words) [2]: excellent selectivity; more potent against sigma-2 ([2]; relative to earlier dimethyl amide analogs): about 8 fold
7 | CCCn1nc(C(=O)N(C)C)c2c1CCC(NCCc1ccc3c(c1)OCO3)C2 (stereo not drawn) [compound 200876, 5-((2-(benzo[d][1,3]dioxol-5-yl)ethyl)amino)-N,N-dimethyl-1-propyl-4,5,6,7-tetrahydro-1H-indazole-3-carboxamide] | > 10000 | 430 | 
8 | O=C(c1c2c(nn1-c1ccccc1)CCC(NCCc1ccc(C(F)(F)F)cc1)C2)N1CCCCC1 (stereo not drawn) [compound 201683, (2-Phenyl-5-((4-(trifluoromethyl)phenethyl)amino)-4,5,6,7-tetrahydro-2H-indazol-3-yl)(piperidin-1-yl)methanone] | 213 | > 10000 | 

Continued, in another order:

Row | Ki [1] [nM] | Ki [2] [nM] | Compound | further results
9 | 38 | 139 | O=C(c1c2c(nn1-c1ccccc1)CCC(NCc1ccccc1)C2)N1CCCCC1 (stereo not drawn) [compound 201676, (5-(Benzylamino)-2-phenyl-4,5,6,7-tetrahydro-2H-indazol-3-yl)(piperidin-1-yl)methanone] | 
10 | 159 | > 10000 | O=C(c1nn(-c2ccccc2)c2c1CC(NCc1ccc(F)cc1)CC2)N1CCCCC1 (stereo not drawn) [compound 2001685, (5-((4-Fluorobenzyl)amino)-1-phenyl-4,5,6,7-tetrahydro-1H-indazol-3-yl)(piperidin-1-yl)methanone] | improvement in potency against sigma-1 receptor ([1]; relative to the comparator analog named in the text): over 4 fold
11 | 70 | > 10000 | O=C(c1nn(Cc2ccccc2)c2c1CC(NCc1ccc(F)cc1)CC2)N1CCCCC1 (stereo not drawn) [compound 201115, (1-benzyl-5-((4-fluorobenzyl)amino)-4,5,6,7-tetrahydro-1H-indazol-3-yl)(piperidin-1-yl)methanone] | selectivity sigma-1 versus sigma-2 (in words) [1]: excellent selectivity
12 | 192 | 34 | CCCn1nc(C(=O)N2CCCCC2)c2c1CCC(N1CCN(C)CC1)C2 (stereo not drawn) [compound 196337, (5-(4-methylpiperazin-1-yl)-1-propyl-4,5,6,7-tetrahydro-1H-indazol-3-yl)(piperidin-1-yl)methanone] | activity against sigma-2 (in words) [2]: great overall potency; selectivity for sigma-2 over sigma-1 [2]: about 5 fold
13 | 1400 | 595 | CCCn1nc(C(=O)N(C)C)c2c1CCC(NCCc1ccc(C(F)(F)F)cc1)C2 (stereo not drawn) [compound 200878, N,N-dimethyl-1-propyl-5-((4-(trifluoromethyl)phenethyl)amino)-4,5,6,7-tetrahydro-1H-indazole-3-carboxamide] | 
14 | 458 | 305 | C=Cc1ccc(-n2nc(C(=O)N3CCCCC3)c3c2CCC(NCCc2ccccc2)C3)cc1 (stereo not drawn) [compound 201244, (5-(Phenethylamino)-1-(4-vinylphenyl)-4,5,6,7-tetrahydro-1H-indazol-3-yl)(piperidin-1-yl)methanone] | 
15 | 547 | 349 | O=C(c1nn(-c2ccccc2)c2c1CC(NCCc1ccc3c(c1)OCO3)CC2)N1CCCCC1 (stereo not drawn) [compound 201679, (5-((2-(Benzo[d][1,3]dioxol-5-yl)ethyl)amino)-1-phenyl-4,5,6,7-tetrahydro-1H-indazol-3-yl)(piperidin-1-yl)methanone] | 
